Measurements from patent publication US20090227619A1, “Harmine derivatives, intermediates used in their preparations, preparation processes and use therefo” (priority 2003, published 2009).
Values joined by “and” are separate entries in the source; they are usually repeats but may differ in a detail not shown here. Equal entries are not always repeated. Where two headings read alike, the source gives them in different places.

What was measured:
[1] = system: CT-DNA; assay: DNA thermal denaturation, determination of ΔTm; assay type: binding; settings: CT-DNA thermal denaturation; 20 uM compound; Tm of CT-DNA alone 61° C.
Protocol: Experiments were carried out in PE buffer (1 mM Na2HPO4, 0.1 mM EDTA, pH 7.6) in a thermostatically controlled cell hold, and the quartz cuvette (1 cm path length) was heated by circulating water at a heating rate of 0.5° C./min from 25 to 95° C. Amsacrine and Doxorubicin Hydrochloride were used as standards. In all cases, the concentration of CT-DNA was 15 ug/ml. The ‘melting’ temperature Tm was taken as the mid-point of the hyperchromic transition.
ΔTm=Tm^drug-DNA complex−Tm^DNA alone
The ΔTm of each compound was calculated, Experiments were repeated three times, and an average value was calculated.

[2] = system: Bel-7402; assay: In vitro cytotoxicity, IC50 by MTT method, Bel-7402; assay type: cell-based
Procedure, shortened: (§1)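 Cells in RPMI1640 with 10% FBS at 37° C, 5% CO2 were seeded at 10^5/ml and exposed to a compound concentration gradient for 48 h, at least three replicates, solvent controls.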

[3] = system: Lovo; assay: In vitro cytotoxicity, IC50 by MTT method, Lovo; assay type: cell-based
Procedure, shortened: as §1

[4] = system: NIH3T3; assay: In vitro cytotoxicity, IC50 by MTT method, NIH3T3; assay type: cell-based
Procedure, shortened: as §1

[5] = system: CT-DNA; assay: UV absorption spectrum method with CT-DNA; assay type: binding; settings: CT-DNA 40 ug/ml, compound 20 uM, 37° C. for 2 h, OD at 260 nm
Protocol: Compounds to be tested (20 uM) were added into the PE buffer solution, and its scan curve was identified by the spectrograph at a wavelength of from 200 to 400 nm. CT-DNA (40 ug/ml) and compounds to be tested (20 uM) were added into the PE buffer solution. The mixture was cultured at 37° C. for 2 h, and its scan curve was identified by the UV spectrograph at a wavelength of from 200 to 400 nm. […] After that, the OD value at 260 nm of the scan curve of the medicaments tested and that of the CT-DNA mixture OD value at 260 nm of the scan curve were calculated and compared to determine the influences of the medicaments tested on the UV absorption spectrum of the DNA molecules.

[6] = system: Hela; assay: In vitro cytotoxicity, IC50 by MTT method, Hela; assay type: cell-based
Procedure, shortened: as §1

[7] = system: BGC-823; assay: In vitro cytotoxicity, IC50 by MTT method, BGC-823; assay type: cell-based
Procedure, shortened: as §1

[8] = system: S180 sarcoma; settings: comparison table 43, in vivo, S180 sarcoma
[9] = system: Lewis lung cancer; settings: comparison table 43, in vivo, Lewis lung cancer;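 further: mice implanted subcutaneously in the axilla with Lewis lung tumor cells, treated starting the following day, killed roughly three weeks after implantation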
Excerpt: There was one group of 8 to 10 mice C57BL/6 and Kunming mice for the anti-tumor tests and two groups of mice for negative control.
(3) Sources of tumors: Lewis lung cancer cells and S180 sarcoma in mice, which were sub-cultured and maintained by Pharmacological Center of Shanghai Pharmaceutical Industrial Research Institute.
All samples were weighed and added a small amount of Tween-80 to facilitate dissolution during the experiment, and then 0.5% CMC-Na solution was gradually added to achieve the desired concentration. The volume for experiment was 0.5 ml/20 g mouse.
The medicaments were intraperitoneally administered once a day continuously for 10 days.
For the negative control group, a vehicle of the same volume was intraperitoneally administered once a day continuously for 10 days. For the positive control group, CTX was administered in the dosage of 30 mg/kg once a day continuously for 7 days.
In vivo anti-tumor subcutaneous vaccination in the axilla was employed. Wildly grown tumor source was taken under sterile conditions to form a cell suspension of about 1×10^7 ml by homogenization method. For a corresponding mouse host, the suspension was injected in the axilla in an amount of 0.2 ml/mouse. The next day, the medicaments were administered according to the design of the tests. About three weeks later, all the groups of animals were executed. The tumors were taken from the animals and weighed. The inhibition rate of tumors was calculated according to the following formula:
T: average tumor weight of treated group; C: average tumor weight of negative control group.

[10] = system: PLA-801; assay: In vitro cytotoxicity, IC50 by MTT method, PLA-801; assay type: cell-based
Procedure, shortened: as §1

[11] = system: HepG2; assay: In vitro cytotoxicity, IC50 by MTT method, HepG2; assay type: cell-based, human
Procedure, shortened: as §1

[12] = Solubility (physico-chemical data tables); settings: qualitative
[13] = Bel7402 cell strain, read-out: IC50 Bel7402
[14] = Lovo cell strain, read-out: IC50 Lovo
[15] = NIH3T3 cell strain, read-out: IC50 NIH3T3
[16] = Table 12, 3,9-disubstituted β-carboline derivatives
[17] = Hela cell strain, read-out: IC50 Hela
[18] = BGC823 cell strain, read-out: IC50 BGC823
[19] = PLA-801 cell strain, read-out: IC50 PLA-801
[20] = HepG2 cell strain, read-out: IC50 HepG2
[21] = Homo sapiens, Bel-7402, Bel7402 cell strain, read-out: IC50 Bel7402
[22] = Homo sapiens, Lovo cell strain, read-out: IC50 Lovo
[23] = Mus musculus, NIH3T3 cell strain, read-out: IC50 NIH3T3
[24] = Table 15, 1,3,9-substituted β-carboline derivatives
[25] = Homo sapiens, Hela cell strain, read-out: IC50 Hela
[26] = Homo sapiens, BGC-823, BGC823 cell strain, read-out: IC50 BGC823
[27] = Homo sapiens, HepG2 cell strain, read-out: IC50 HepG2

Structure (SMILES) | Influence on the UV absorption of DNA [5] | IC50 [2, 13] [µM] | IC50 [3, 14] [µM] | IC50 [4, 15] [µM] | IC50 [6, 17] [µM] | IC50 [7, 18] [µM] | IC50 [10, 19] [µM] | IC50 [11, 20] [µM] | IC50 [2, 21] [µM] | IC50 [3, 22] [µM] | melting point | IC50 [4, 23] [µM] | Solubility [12, 24] | IC50 [6, 25] [µM] | IC50 [7, 26] [µM] | IC50 [11, 27] [µM] | other results
COc1ccc2c(c1)[nH]c1c(C)nccc12 [Compound 1, reference compound] | reduce the UV absorption of DNA |  |  |  |  |  |  |  |  |  |  |  |  |  |  |  | ΔTm [1]: 8.5 °C; IC50 ([2]; Homo sapiens, Bel-7402): 20 µM; IC50 ([3]; Homo sapiens, LoVo): 70 µM; IC50 ([4]; Mus musculus, NIH3T3): 60 µM; IC50 ([6]; Homo sapiens, HeLa): 60 µM; IC50 ([7]; Homo sapiens, BGC-823): 70 µM; Inhibition rate (%) S180 sarcomata [8]: 15.3%; Inhibition rate (%) Lewis cancer [9]: 34.1%; IC50 [10]: 50 µM; IC50 ([11]; Homo sapiens, HepG2): 50 µM
O=C(O)c1cc2c3ccccc3n(Cc3c(F)c(F)c(F)c(F)c3F)c2cn1 [Compound 49, 9-(2′,3′,4′,5′,6′-pentafluoro)benzyl-β-carboline-3-carboxylic acid] | increase the UV absorption of DNA | 60 | 10 | 20 | 40 | 40 | 90 | 30 |  |  |  |  |  |  |  |  | Solubility [12, 16]: soluble in DMSO
O=C(Cn1c2ccccc2c2cc(C(=O)O)ncc21)c1ccccc1 [Compound 50, 9-acetophenone-β-carboline-3-carboxylic acid] |  | 140 | 70 | 50 | 70 | 60 | 140 | 90 |  |  |  |  |  |  |  |  | Solubility [12, 16]: soluble in DMSO
Cc1nc(C(=O)O)cc2c3ccccc3n(Cc3ccccc3)c12 [Compound 64, 9-benzyl-1-methyl-β-carboline-3-carboxylic acid] |  |  |  |  |  |  | 410 |  | 690 | 200 | 246 to 248 °C | 140 | soluble in DMSO | 370 | 280 | 280 | 
Cc1nc(C(=O)O)cc2c3ccccc3n(Cc3c(F)c(F)c(F)c(F)c3F)c12 [Compound 66, 9-(2′,3′,4′,5′,6′-pentafluoro)benzyl-1-methyl-β-carboline-3-carboxylic acid] | increase the UV absorption of DNA | 120 | 80 | 80 | 110 | 160 | 190 | 120 |  |  |  |  | soluble in DMSO |  |  |  | 
Cc1nc(C(=O)O)cc2c3ccccc3n(CC(=O)c3ccccc3)c12 [Compound 67, 9-acetophenone-1-methyl-β-carboline-3-carboxylic acid] |  | > 3000 | 1340 | 1460 | 2480 | 1520 | 2000 | 2230 |  |  |  |  | soluble in DMSO |  |  |  | 
CCCc1nc(C(=O)O)cc2c3ccccc3n(Cc3ccccc3)c12 [Compound 74, 9-benzyl-1-propyl-β-carboline-3-carboxylic acid] |  |  |  |  |  |  | 270 |  | 180 | 140 | 193 to 194 °C | 160 | soluble in DMSO | 160 | 270 | 170 | 
Cn1c2ccccc2c2cc(C(=O)O)nc(-c3ccccc3)c21 [Compound 78, 9-methyl-1-phenyl-β-carboline-3-carboxylic acid] |  |  |  |  |  |  | 650 |  | 280 | 110 | 223 to 234 °C and 223 to 224 °C | 150 | soluble in DMSO | 170 | 210 | 160 | 
CCn1c2ccccc2c2cc(C(=O)O)nc(-c3ccccc3)c21 [Compound 79, 9-ethyl-1-phenyl-β-carboline-3-carboxylic acid] |  |  |  |  |  |  | 110 |  | 140 | 100 | 194 to 195 °C | 120 | soluble in DMSO | 140 | 250 | 160 | 
CCCCn1c2ccccc2c2ccncc21 [Compound 83, 9-n-butyl-β-carboline] | reduce the UV absorption of DNA |  |  |  |  |  | 130 |  | 160 | 130 | 78 to 79 °C | 80 |  | 90 | 100 | 100 | ΔTm [1]: 2.4 °C
